Measured values reported in patent US20230085307A1, “PYRIDAZINONE COMPOUND AND HERBICIDE” (NISSAN CHEMICAL CORPORATION, priority 2019, published 2023).

Tests used:
[1] = test system: rice flat sedge; test: Test Example 3: herbicidal effect by foliage application, Wagner pot (Table 18, symbol E); type: in vivo, rice flat sedge (Cyperus iria)
Procedure: (§1) [Test Example 3] Herbicidal Effect Test by Foliage Application After alluvial soil was placed into 1/10000 are of Wagner pot, water was poured and mixed to form a submerged condition having a water depth of 0.1 cm to 0.5 cm. Seeds of barnyard grass, Chinese sprangletop, rice flat sedge, and rice were sowed and the pot was placed in a greenhouse at 25° C. to 30° C. for growth of the plants. After 14-day growth of the plants, the emulsion agent of the compound of the present invention prepared according to Formulation Example 2 was diluted with water so as to achieve a predetermined herbicide amount, and the diluted emulsion agent was uniformly applied to a foliage part with a small-sized spray. Three weeks after the herbicide application, the effect of the herbicide on each plant was evaluated according to the criteria of Test Example 1.

[2] = test system: Chinese sprangletop; test: Test Example 3: herbicidal effect by foliage application, Wagner pot (Table 18, symbol D); type: in vivo, chinese sprangletop (Leptochloa chinensis)
Procedure: as §1

[3] = test system: barnyard grass; test: Test Example 3: herbicidal effect by foliage application, Wagner pot (Table 18, symbol H); type: in vivo, barnyard grass (Echinochloa crus-galli)
Procedure: as §1

[4] = amount of applied herbicide 320 g/ha
[5] = amount of applied herbicide 101 g/ha
[6] = amount of applied herbicide 125 g/ha

SMILES: CCCC(=O)Oc1c(C)nn(C)c(=O)c1-c1c(-c2ccc(OC)nc2OC)sc2ccccc12 [1-080]
- herbicidal effect on E (rice flat sedge), rating 0-5 ([1]; 320 g/ha): 4 (Herbicidal rate of 70% or more and less than 90%)
- herbicidal effect on D (Chinese sprangletop), rating 0-5 ([2]; 320 g/ha): 0 (Herbicidal rate of 5% or less (almost no effect))
- herbicidal effect on H (barnyard grass), rating 0-5 ([3]; 320 g/ha): 0 (Herbicidal rate of 5% or less (almost no effect))

SMILES: COc1nn(C)c(=O)c(-c2c(-c3ccc(Oc4ccccc4)cc3)sc3ccccc23)c1O [1-164]
- herbicidal effect on E (rice flat sedge), rating 0-5 ([1]; 80 g/ha): 4 (Herbicidal rate of 70% or more and less than 90%)
- herbicidal effect on D (Chinese sprangletop), rating 0-5 ([2]; 80 g/ha): 4 (Herbicidal rate of 70% or more and less than 90%)
- herbicidal effect on H (barnyard grass), rating 0-5 ([3]; 80 g/ha): 4 (Herbicidal rate of 70% or more and less than 90%)

SMILES: CCCC(=O)Oc1c(OC)nn(C)c(=O)c1-c1c(-c2ccoc2)sc2ccccc12 [1-191]
- herbicidal effect on E (rice flat sedge), rating 0-5 ([1]; 80 g/ha): 4 (Herbicidal rate of 70% or more and less than 90%)
- herbicidal effect on D (Chinese sprangletop), rating 0-5 ([2]; 80 g/ha): 5 (Herbicidal rate of 90% or more (almost completely withered))
- herbicidal effect on H (barnyard grass), rating 0-5 ([3]; 80 g/ha): 2 (Herbicidal rate of 20% or more and less than 40%)

SMILES: Cc1ccc2sc(-c3ccc4ccccc4c3)c(-c3c(O)c(C)nn(C)c3=O)c2c1 [2-154]
- herbicidal effect on E: rice flat sedge [1, 4]: 3 (Herbicidal rate of 40% or more and less than 70%)
- herbicidal effect on D: Chinese sprangletop [2, 4]: 0 (Herbicidal rate of 5% or less (almost no effect))
- herbicidal effect on H: barnyard grass [3, 4]: 3 (Herbicidal rate of 40% or more and less than 70%)

SMILES: CCCC(=O)Oc1c(C)nn(C)c(=O)c1-c1c(-c2cc(C(F)(F)F)cc(C(F)(F)F)c2)sc2ccc(F)cc12 [2-359]
- herbicidal effect on E: rice flat sedge [1, 4]: 3 (Herbicidal rate of 40% or more and less than 70%)
- herbicidal effect on D: Chinese sprangletop [2, 4]: 5 (Herbicidal rate of 90% or more (almost completely withered))
- herbicidal effect on H: barnyard grass [3, 4]: 3 (Herbicidal rate of 40% or more and less than 70%)

SMILES: COc1cc(F)ccc1-c1sc2ccc(S(C)(=O)=O)cc2c1-c1c(O)c(C)nn(C)c1=O [2-377]
- herbicidal effect on E: rice flat sedge [1, 5]: 3 (Herbicidal rate of 40% or more and less than 70%)
- herbicidal effect on D: Chinese sprangletop [2, 5]: 3 (Herbicidal rate of 40% or more and less than 70%)
- herbicidal effect on H: barnyard grass [3, 5]: 4 (Herbicidal rate of 70% or more and less than 90%)

SMILES: CCn1nc(C)c(O)c(-c2c(-c3ccc(Cl)cc3)sc3ccc(F)cc23)c1=O [2-400]
- herbicidal effect on E: rice flat sedge [1, 4]: 5 (Herbicidal rate of 90% or more (almost completely withered))
- herbicidal effect on D: Chinese sprangletop [2, 4]: 5 (Herbicidal rate of 90% or more (almost completely withered))

SMILES: Cc1n[nH]c(=O)c(-c2c(-c3ccc(F)cc3)sc3ccc(F)cc23)c1O [2-428]
- herbicidal effect on E: rice flat sedge [1, 6]: 0 (Herbicidal rate of 5% or less (almost no effect))
- herbicidal effect on D: Chinese sprangletop [2, 6]: 0 (Herbicidal rate of 5% or less (almost no effect))
- herbicidal effect on H: barnyard grass [3, 6]: 4 (Herbicidal rate of 70% or more and less than 90%)

SMILES: Cc1nn(Cc2ccccc2)c(=O)c(-c2c(-c3ccc(Cl)cc3)sc3ccc(F)cc23)c1O [2-434]
- herbicidal effect on E: rice flat sedge [1, 4]: 2 (Herbicidal rate of 20% or more and less than 40%)
- herbicidal effect on H: barnyard grass [3, 4]: 2 (Herbicidal rate of 20% or more and less than 40%)

SMILES: Cc1nn(C)c(=O)c(-c2c(-c3ccc(OC(F)F)cc3)sc3c(C)cccc23)c1O [4-128]
- herbicidal effect on rice flat sedge (E) ([1]; 320 g/ha): 5 (Herbicidal rate of 90% or more (almost completely withered))
- herbicidal effect on Chinese sprangletop (D) ([2]; 320 g/ha): 0 (Herbicidal rate of 5% or less (almost no effect))
- herbicidal effect on barnyard grass (H) ([3]; 320 g/ha): 3 (Herbicidal rate of 40% or more and less than 70%)

SMILES: Cc1nn(C)c(=O)c(-c2c(-c3ccc(C(=O)O)cc3)sc3cc(F)c(F)cc23)c1O [5-027]
- herbicidal effect on rice flat sedge (E) ([1]; 320 g/ha): 0 (Herbicidal rate of 5% or less (almost no effect))
- herbicidal effect on Chinese sprangletop (D) ([2]; 320 g/ha): 0 (Herbicidal rate of 5% or less (almost no effect))
- herbicidal effect on barnyard grass (H) ([3]; 320 g/ha): 3 (Herbicidal rate of 40% or more and less than 70%)

SMILES: CCOc1cc(F)ccc1-c1cc2c(-c3c(O)c(C)nn(C)c3=O)c(-c3ccc(F)cc3OCC)sc2cc1OC [5-081]
- herbicidal effect on rice flat sedge (E) ([1]; 320 g/ha): 0 (Herbicidal rate of 5% or less (almost no effect))
- herbicidal effect on Chinese sprangletop (D) ([2]; 320 g/ha): 2 (Herbicidal rate of 20% or more and less than 40%)
- herbicidal effect on barnyard grass (H) ([3]; 320 g/ha): 2 (Herbicidal rate of 20% or more and less than 40%)

SMILES: Cc1cc2sc(-c3ccc(C(F)(F)F)cc3)c(-c3c(O)c(C)nn(C)c3=O)c2cc1C [5-096]
- herbicidal effect on rice flat sedge (E) ([1]; 320 g/ha): 2 (Herbicidal rate of 20% or more and less than 40%)
- herbicidal effect on Chinese sprangletop (D) ([2]; 320 g/ha): 2 (Herbicidal rate of 20% or more and less than 40%)
- herbicidal effect on barnyard grass (H) ([3]; 320 g/ha): 3 (Herbicidal rate of 40% or more and less than 70%)

SMILES: Cc1ccc(-c2oc3ccc(F)cc3c2-c2c(O)c(C)nn(C)c2=O)cc1 [9-017]
- Herbicidal effect on E (rice flat sedge), foliage application [1, 4]: 5 (Herbicidal rate of 90% or more (almost completely withered))
- Herbicidal effect on D (Chinese sprangletop), foliage application [2, 4]: 3 (Herbicidal rate of 40% or more and less than 70%)
- Herbicidal effect on H (barnyard grass), foliage application [3, 4]: 5 (Herbicidal rate of 90% or more (almost completely withered))

SMILES: Cc1nn(C)c(=O)c(-c2c(-c3ccc(C(F)(F)F)cc3)oc3ccc(F)cc23)c1O [9-029]
- Herbicidal effect on E (rice flat sedge), foliage application [1, 4]: 5 (Herbicidal rate of 90% or more (almost completely withered))
- Herbicidal effect on D (Chinese sprangletop), foliage application [2, 4]: 3 (Herbicidal rate of 40% or more and less than 70%)
- Herbicidal effect on H (barnyard grass), foliage application [3, 4]: 4 (Herbicidal rate of 70% or more and less than 90%)
